The target in this experiment is T1, full-length beta-Catenin (Uniprot ID P35222) (Homo sapiens, UniProt P35222).
T1 construct: 10 nM full-length beta-Catenin (Uniprot ID P35222)
T1 sequence (P35222 1-781): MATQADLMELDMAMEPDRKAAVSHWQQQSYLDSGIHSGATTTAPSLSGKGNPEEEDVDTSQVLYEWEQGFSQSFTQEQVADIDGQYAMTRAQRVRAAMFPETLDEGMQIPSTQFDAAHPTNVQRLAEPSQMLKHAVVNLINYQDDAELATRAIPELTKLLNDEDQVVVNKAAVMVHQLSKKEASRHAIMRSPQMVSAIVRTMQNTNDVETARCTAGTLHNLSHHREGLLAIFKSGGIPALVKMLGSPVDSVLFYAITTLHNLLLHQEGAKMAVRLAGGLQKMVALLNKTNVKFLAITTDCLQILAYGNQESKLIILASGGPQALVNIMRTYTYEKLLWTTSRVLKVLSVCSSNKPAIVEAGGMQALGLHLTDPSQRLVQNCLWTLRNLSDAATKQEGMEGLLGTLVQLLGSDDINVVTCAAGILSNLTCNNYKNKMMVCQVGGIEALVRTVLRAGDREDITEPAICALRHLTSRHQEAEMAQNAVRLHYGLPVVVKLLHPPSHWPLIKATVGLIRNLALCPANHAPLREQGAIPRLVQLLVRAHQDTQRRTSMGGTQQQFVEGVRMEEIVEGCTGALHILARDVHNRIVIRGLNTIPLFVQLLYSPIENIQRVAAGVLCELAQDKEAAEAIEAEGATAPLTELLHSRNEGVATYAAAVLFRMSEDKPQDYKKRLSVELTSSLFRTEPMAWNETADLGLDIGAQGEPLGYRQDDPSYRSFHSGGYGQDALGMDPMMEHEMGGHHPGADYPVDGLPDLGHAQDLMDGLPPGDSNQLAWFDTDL
Nature of the experiment: Fluorescence polarization IC50 (beta-catenin / 5FAM-TCF4 10-53 competition). The note with it: fluorescence polarization. In kind it is binding. (In general: Fluorescence polarisation rises when a labelled molecule tumbles more slowly, as on binding a larger partner.)

Read-outs that look alike come from different tables or passages of the source.

For `CC(=O)N1CCC[C@]12CC=CCCCC1(CCCC=CCCCOC(=O)N3CC[C@@](C(=O)N[C@@H](Cc4cccc(-c5ccccc5)c4)C(=O)N[C@@H](CC4CCC4)C(=O)N[C@@H](CCC(N)=O)C(N)=O)(C3)NC(=O)[C@H](CC(C)C)NC(=O)[C@H](Cc3ccccc3)NC(=O)[C@H](C)NC(=O)[C@H](C)NC(=O)[C@H](Cc3cccc(C(=O)O)c3)NC(=O)[C@H](CC(=O)O)NC1=O)NC(=O)[C@H](CC(C)(C)C)NC(=O)[C@H](CC(=O)O)NC2=O` (stereo partly drawn) [I-2255, Ac-PL3-Asp-Npg-B5-Asp-3COOHF-Ala-Ala-Phe-Leu-PyrS2-[Ph]3SF-Cba-Gln-NH2], the IC50 (read-out: beta-Catenin FP IC50) was 7650 nM.
Still for that read-out and setting: under `CC(=O)N1CCC[C@]12CC=CCCCC1(CCCC=CCCCOC(=O)N3CC[C@@](C(=O)N[C@@H](Cc4cccc(-c5ccccc5)c4)C(=O)N[C@@H](Cc4ccccc4C(F)(F)F)C(=O)N[C@@H](CCC(N)=O)C(N)=O)(C3)NC(=O)[C@H](CC(C)C)NC(=O)[C@H](Cc3ccccc3)NC(=O)[C@H](C)NC(=O)[C@H](C)NC(=O)[C@H](Cc3cccc(C(=O)O)c3)NC(=O)[C@H](CC(=O)O)NC1=O)NC(=O)[C@H](CC(C)(C)C)NC(=O)[C@H](CC(=O)O)NC2=O` (stereo partly drawn) [I-2256, Ac-PL3-Asp-Npg-B5-Asp-3COOHF-Ala-Ala-Phe-Leu-PyrS2-[Ph]3SF-2F3MeF-Gln-NH2] stands 8410 nM; under `CC(=O)N1CCC[C@]12CC=CCCCC1(CCCC=CCCCOC(=O)N3CC[C@@](C(=O)N[C@@H](Cc4ccsc4)C(=O)N[C@@H](Cc4csc5ccccc45)C(=O)N[C@@H](C)C(N)=O)(C3)NC(=O)[C@H](CC(C)C)NC(=O)[C@H](Cc3ccccc3)NC(=O)[C@H](C)NC(=O)[C@H](C)NC(=O)[C@H](Cc3cccc(C(=O)O)c3)NC(=O)[C@H](CC(=O)O)NC1=O)NC(=O)[C@H](CC(C)(C)C)NC(=O)[C@H]([C@@H](O)C(=O)O)NC2=O` (stereo partly drawn) [I-2258, Ac-PL3-RbOHAsp-Npg-B5-Asp-3COOHF-Ala-Ala-Phe-Leu-PyrS2-3Thi-BztA-Ala-NH2], 272 nM; under `CC(=O)N1CC2CC1C(=O)N[C@@H](CC(=O)O)C(=O)N[C@@H](CC(C)(C)C)C(=O)NC1(CCCC=CCCCOC(=O)N3CC[C@@](C(=O)N[C@@H](Cc4ccsc4)C(=O)N[C@@H](Cc4csc5ccccc45)C(=O)N[C@@H](CCC(N)=O)C(N)=O)(C3)NC(=O)[C@H](CC(C)C)NC(=O)[C@H](Cc3ccccc3)NC(=O)[C@H](C)NC(=O)[C@H](C)NC(=O)[C@H](CN(CC(=O)O)CC(F)(F)F)NC(=O)[C@H](CC(=O)O)NC1=O)CCCC=CCCC(=O)O2` (stereo partly drawn) [I-2264, Ac-HypEs5-Asp-Npg-B5-Asp-TfeGA-Ala-Ala-Phe-Leu-PyrS2-3Thi-BztA-Gln-NH2], 45 nM.
The same measure, in the same setting: the value for `CC(C)C[C@@H]1NC(=O)[C@H](Cc2ccccc2)NC(=O)[C@H](C)NC(=O)[C@H](C)NC(=O)[C@H](CN(CC(=O)O)CC(F)(F)F)NC(=O)[C@H](CC(=O)O)NC(=O)C2(CCCC=CCCCOC(=O)N3CC[C@@](C(=O)N[C@@H](Cc4ccsc4)C(=O)N[C@@H](Cc4csc5ccccc45)C(=O)N[C@@H](CCC(N)=O)C(N)=O)(C3)NC1=O)CCCC=CCS(=O)(=O)N1CCC[C@@H]1C(=O)N[C@@H](CC(=O)O)C(=O)N[C@@H](CC(C)(C)C)C(=O)N2` (stereo partly drawn) [I-2266, ProSAm3-Asp-Npg-B5-Asp-TfeGA-Ala-Ala-Phe-Leu-PyrS2-3Thi-BztA-Gln-NH2] was 266 nM; that for `CC(C)C[C@@H]1NC(=O)[C@H](Cc2ccccc2)NC(=O)[C@H](C)NC(=O)[C@H](C)NC(=O)[C@H](CN(CC(=O)O)CC(F)(F)F)NC(=O)[C@H](CC(=O)O)NC(=O)C2(CCCCCCCCOC(=O)N3CC[C@@](C(=O)N[C@@H](Cc4ccsc4)C(=O)N[C@@H](Cc4csc5ccccc45)C(=O)N[C@@H](CCC(N)=O)C(N)=O)(C3)NC1=O)CCCCCCS(=O)(=O)N1CCC[C@@H]1C(=O)N[C@@H](CC(=O)O)C(=O)N[C@@H](CC(C)(C)C)C(=O)N2` (stereo partly drawn) [I-2267, ProSAm3-Asp-Npg-B5-Asp-TfeGA-Ala-Ala-Phe-Leu-PyrS2-3Thi-BztA-Gln-NH2] was 499 nM.
In turn, `CC(=O)N1CCC[C@]12CC=CCCCC1(CCCC=CCCCOC(=O)N3CC[C@@](C(=O)N[C@@H](Cc4ccsc4)C(=O)N[C@@H](Cc4csc5ccccc45)C(=O)N[C@@H](CC(N)=O)C(=O)N[C@@H](C)C(=O)N[C@@H](C)C(=O)N[C@@H](C)C(=O)N[C@@H](C)C(=O)N[C@@H](C)C(=O)N[C@@H](C)C(=O)N[C@@H](C)C(=O)N[C@@H](C)C(=O)N[C@@H](C)C(N)=O)(C3)NC(=O)[C@H](CC(C)C)NC(=O)[C@H](Cc3ccccc3)NC(=O)[C@H](C)NC(=O)[C@H](C)NC(=O)[C@H](Cc3cccc(C(=O)O)c3)NC(=O)[C@H](CC(=O)O)NC1=O)NC(=O)[C@H](CC(C)(C)C)NC(=O)[C@H](CC(=O)O)NC2=O` (some centres unmarked) [I-2270] showed an IC50 (beta-Catenin FP IC50 (nM)) of 40 nM.
As for `C[C@@H]1NC(=O)[C@H](C)NC(=O)[C@H](CC(=O)O)NC(=O)[C@H](CC(=O)O)NC(=O)C2(CCCC=CCCCOC(=O)N3CC[C@@](C(=O)N[C@@H](Cc4ccsc4)C(=O)N[C@@H](Cc4csc5ccccc45)C(=O)N[C@@H](Cc4c[nH]cn4)C(N)=O)(C3)NC(=O)[C@H](CCC(N)=O)NC(=O)[C@H](Cc3ccccc3)NC1=O)CCCC=CC[C@]1(CCCN1C(=O)CBr)C(=O)N[C@@H](CC(=O)O)C(=O)N[C@@H](CC(C)(C)C)C(=O)N2` (stereo partly drawn) [I-2285, BrAc-PL3-Asp-Npg-B5-Asp-Asp-Ala-Ala-Phe-Gln-PyrS2-3Thi-BztA-His-NH2], under “beta-Catenin FP IC50 (nM)”, the IC50 amounted to 94 nM.
The same measure, in the same setting: under `CC(C)C[C@@H]1NC(=O)[C@H](Cc2ccccc2)NC(=O)[C@H](C)NC(=O)[C@H](C)NC(=O)[C@H](Cc2cccc(C(=O)O)c2)NC(=O)[C@H](CC(=O)O)NC(=O)C2(CCCC=CCCCOC(=O)N3CC[C@@](C(=O)N[C@@H](Cc4ccccc4Cl)C(=O)N[C@@H](Cc4csc5ccccc45)C(=O)N[C@@H](C)C(N)=O)(C3)NC1=O)CCCC=CC[C@]1(CCCN1C(=O)CBr)C(=O)N[C@@H](CC(=O)O)C(=O)N[C@@H](CC(C)(C)C)C(=O)N2` (stereo partly drawn) [I-2286, BrAc-PL3-Asp-Npg-B5-Asp-3COOHF-Ala-Ala-Phe-Leu-PyrS2-2C1F-BztA-Ala-NH2] stands 88 nM.
For the molecule `CCCCOC(=O)N1CCC[C@]12CC=CCCCC1(CCCC=CCCCOC(=O)N3CC[C@@](C(=O)N[C@@H](Cc4ccccc4Cl)C(=O)N[C@@H](Cc4csc5ccccc45)C(=O)N[C@@H](C)C(N)=O)(C3)NC(=O)[C@H](CC(C)C)NC(=O)[C@H](Cc3ccccc3)NC(=O)[C@H](C)NC(=O)[C@H](C)NC(=O)[C@H](Cc3cccc(C(=O)O)c3)NC(=O)[C@H](CC(=O)O)NC1=O)NC(=O)[C@H](CC(C)(C)C)NC(=O)[C@H](CC(=O)O)NC2=O` (stereo partly drawn) [I-2304, CO2Bu-PL3-Asp-Npg-B5-Asp-3COOHF-Ala-Ala-Phe-Leu-PyrS2-2C1F-BztA-Ala-NH2], the IC50 (read-out: beta-Catenin FP IC50) worked out at 511 nM.
The same measure, in the same setting: under `COC(=O)N1CCC[C@]12CC=CCCCC1(CCCC=CCCCOC(=O)N3CC[C@@](C(=O)N[C@@H](Cc4ccccc4Cl)C(=O)N[C@@H](Cc4csc5ccccc45)C(=O)N[C@@H](C)C(N)=O)(C3)NC(=O)[C@H](CC(C)C)NC(=O)[C@H](Cc3ccccc3)NC(=O)[C@H](C)NC(=O)[C@H](C)NC(=O)[C@H](Cc3cccc(C(=O)O)c3)NC(=O)[C@H](CC(=O)O)NC1=O)NC(=O)[C@H](CC(C)(C)C)NC(=O)[C@H](CC(=O)O)NC2=O` (stereo partly drawn) [I-2324, CO2Me-PL3-Asp-Npg-B5-Asp-3COOHF-Ala-Ala-Phe-Leu-PyrS2-2C1F-BztA-Ala-NH2] stands 83 nM; under `CC(C)C[C@@H]1NC(=O)[C@H](Cc2ccccc2)NC(=O)[C@H](C)NC(=O)[C@H](C)NC(=O)[C@H](Cc2cccc(C(=O)O)c2)NC(=O)[C@H](CC(=O)O)NC(=O)C2(CCCC=CCCCOC(=O)N3CC[C@@](C(=O)N[C@@H](Cc4ccccc4Cl)C(=O)N[C@@H](Cc4csc5ccccc45)C(=O)N[C@@H](C)C(N)=O)(C3)NC1=O)CCCC=CC[C@]1(CCCN1C(=O)OC1CCCCC1)C(=O)N[C@@H](CC(=O)O)C(=O)N[C@@H](CC(C)(C)C)C(=O)N2` (stereo partly drawn) [I-2325, CO2Hex-PL3-Asp-Npg-B5-Asp-3COOHF-Ala-Ala-Phe-Leu-PyrS2-2C1F-BztA-Ala-NH2], 1350 nM.
Consider `C[C@@H]1NC(=O)[C@H](C)NC(=O)[C@H](CC(=O)O)NC(=O)[C@H](CC(=O)O)NC(=O)C2(CCCC=CCCCOC(=O)N3CC[C@@](C(=O)N[C@@H](Cc4ccsc4)C(=O)N[C@@H](Cc4csc5ccccc45)C(=O)N[C@@H](Cc4c[nH]cn4)C(N)=O)(C3)NC(=O)[C@H](CCC(N)=O)NC(=O)[C@H](Cc3ccccc3)NC1=O)CCCC=CC[C@]1(CCCN1C(=O)Oc1ccccc1)C(=O)N[C@@H](CC(=O)O)C(=O)N[C@@H](CC(C)(C)C)C(=O)N2` (stereo partly drawn) [I-2326, CO2Ph-PL3-Asp-Npg-B5-Asp-Asp-Ala-Ala-Phe-Gln-PyrS2-3Thi-BztA-His-NH2], for which the IC50 (beta-Catenin FP IC50 (nM)) stood at 185 nM.
For the molecule `CC(C)C[C@@H]1NC(=O)[C@H](Cc2ccccc2)NC(=O)[C@H](C)NC(=O)[C@H](C)NC(=O)[C@H](Cc2cccc(C(=O)O)c2)NC(=O)[C@H](CC(=O)O)NC(=O)C2(CCCC=CCCCOC(=O)N3CC[C@@](C(=O)N[C@@H](Cc4ccccc4Cl)C(=O)N[C@@H](Cc4csc5ccccc45)C(=O)N[C@@H](C)C(N)=O)(C3)NC1=O)CCCC=CC[C@]1(CCCN1C(=O)Oc1ccccc1)C(=O)N[C@@H](CC(=O)O)C(=O)N[C@@H](CC(C)(C)C)C(=O)N2` (stereo partly drawn) [I-2327, CO2Ph-PL3-Asp-Npg-B5-Asp-3COOHF-Ala-Ala-Phe-Leu-PyrS2-2C1F-BztA-Ala-NH2], the IC50 (beta-Catenin FP IC50 (nM)) turned out to be 376 nM.

The term IC50 denotes the point on the concentration scale where inhibition reaches its midpoint.
